The test system of one test is MDCK cell line. The test is described as follows: cells. Type of test: cell-based. The note with it: for Control IC50: ribavirin control, with Flu A H5N1.
For test [1], the system named is Flu A H3N2 Wisconsin 67/2005. As to the kind of experiment: microbe, parasite or virus in culture. Type of test: cell-based. The note with it: Influenza A virus, H3N2, MDCK, read-out: Control EC50.

The source of these data is patent US8765138B2 (priority 2004, dated 2014).

Values after ≈ are worked out from the molar mass of the structure shown. A value given as a limit tells only on which side of the number the result lay.

Consider `NC(=O)c1ncn([C@@H]2O[C@H](CO)[C@@H](O)[C@H]2O)n1` [RIBAVARIN, Ribavirin], for which the IC50 in the test with MDCK cell line (Canis lupus familiaris, MDCK, read-out: Control IC50) is greater than 320 µg/mL. The “Control IC50” value in the test on MDCK cell line (Neutral Red) and with MDCK cell line (Visual) was greater than 320 µg/mL each time. Further, the EC50 in test [1] turned out to be 1.9 µg/mL (≈ 7.78 µM).

By IC50 is commonly meant the concentration that inhibits the measured activity by half. One may read the EC50 as the concentration at which the effect is half-maximal.
